The target in experiment [1] is T1, FGFR2 (Homo sapiens, UniProt P21802).
T1 construct: made in house; host or cells: E. coli derived from BL21, infected with T7 phage
Put plainly: Kinase binding assay (kinase-tagged T7 phage, affinity beads, qPCR readout), FGFR2. Conditions: FGFR binding data. Put shortly: (§1)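 Dissociation constants were measured by bead-capture competition at 0.9% DMSO, room temperature, 1 hour. qPCR of eluted kinase supplied the signal.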

Experiment [2] has as its target T2, FGFR1 (Homo sapiens, UniProt P11362).
T2 construct: made in house; host or cells: E. coli derived from BL21, infected with T7 phage
Put plainly: Kinase binding assay (kinase-tagged T7 phage, affinity beads, qPCR readout), FGFR1. Conditions: FGFR binding data. Put shortly:
as §1

Experiment [3] has as its system RT112/84 (Bladder Cancer), FGFR3-TACC3 fusion. Put plainly: Cancer cell viability assay (Cell Titer-Glo), RT112/84. Type of experiment: cell-based. To be noted: Homo sapiens, RT112/84 cells, 72 hours. The source says: (§2) RT112/84, UM-UC-14, SNU-16 and KG-1 Cancer Cell Line Cell Viability Assays
(§3) To detect the change of intracellular ATP by Cell Titer-Glo@ and to evaluate the inhibitory effect of the compounds on cancer cell lines by determining the in vitro IC50 value of the compounds.
(§4) Cell Titer-Glo@ 2.0 Luminescent cell viability assay reagent was purchased from Promega (Madison, WI). RT112/84, SNU-16, and KG-1 cell lines were purchased from American Type Culture Collection (Manassas, VA). UM-UC-14 cell line was purchased from Sigma (St. Louis, MO). RT112/84, UM-UC-14, SNU-16, and KG-1 cells were cultured in RPMI1640 media supplemented with 10% fetal bovine serum. Cultures were maintained at 37° C. in a humidified atmosphere of 5% CO2 and 95% air.
(§5) Cell Viability Assay Procedure: Cells were plated in 96-well clear bottom/white plates (Corning #3903) at 10,000 cells/well in 100 μl of media, incubated overnight. The next day, test compound DMSO stock solutions were made at 10 mM and 2 μM final concentration. Compounds were then added to cells in a 9-dose, […] dilution series starting at 30 μM with an HP 300e Digital Dispenser (each dose was applied in triplicate). DMSO was backfilled to each well up to 301 nL total volume of test compound+DMSO, and a total of 301 nL DMSO was added to a control/no test compound well in triplicate. The cells in cell culture plates were incubated with the compounds at 37° C. and 5% CO2 for 72 hours. Then 50 μl of Cell Titer Glo 2.0 reagent was added to each well of the cell culture plates. The contents were covered from light and mixed on an orbital shaker at room temperature for 10 min. Luminescence was recorded by a Synergy H1 Microplate Reader (Biotek, Winooski, VT). Cells were assessed as a percentage of DMSO only treated control cells. Curves were plotted and IC50 values were calculated using the GraphPad Prism 8 program based on a sigmoidal dose-response equation (4 parameter).

The target in experiment [4] is T3, FGFR3 (V555M) (Homo sapiens, UniProt P22607, V555M).
T3 construct: made in house; host or cells: E. coli derived from BL21, infected with T7 phage
Put plainly: Kinase binding assay (kinase-tagged T7 phage, affinity beads, qPCR readout), FGFR3 (V555M). To be noted: FGFR binding data. Put shortly: as §1

In experiment [5] the target is T4, FGFR3 (Homo sapiens, UniProt P22607).
T4 construct: made in house; host or cells: E. coli derived from BL21, infected with T7 phage
Description: Kinase binding assay (kinase-tagged T7 phage, affinity beads, qPCR readout), FGFR3. To be noted: FGFR binding data. The gist of the method:
as §1

Experiment [6] deals with UM-UC-14 (Bladder Cancer), FGFR3(S249C). Description: Cancer cell viability assay (Cell Titer-Glo), UM-UC-14. Type of experiment: cell-based. Conditions: UMUC14, UM-UC-14 cells, 72 hours.
Text: as §2, §3, §4, §5

Experiment [7] deals with SNU-16 (Gastric Carcinoma), FGFR2 amplification. Put plainly: Cancer cell viability assay (Cell Titer-Glo), SNU-16. The format is cell-based. To be noted: Homo sapiens, SNU-16 cells, 72 hours, read-out: SNU16 FGFR2 (IC50 nM).
Text: as §2, §3, §4, §5

T2 sequence (P11362 22-822): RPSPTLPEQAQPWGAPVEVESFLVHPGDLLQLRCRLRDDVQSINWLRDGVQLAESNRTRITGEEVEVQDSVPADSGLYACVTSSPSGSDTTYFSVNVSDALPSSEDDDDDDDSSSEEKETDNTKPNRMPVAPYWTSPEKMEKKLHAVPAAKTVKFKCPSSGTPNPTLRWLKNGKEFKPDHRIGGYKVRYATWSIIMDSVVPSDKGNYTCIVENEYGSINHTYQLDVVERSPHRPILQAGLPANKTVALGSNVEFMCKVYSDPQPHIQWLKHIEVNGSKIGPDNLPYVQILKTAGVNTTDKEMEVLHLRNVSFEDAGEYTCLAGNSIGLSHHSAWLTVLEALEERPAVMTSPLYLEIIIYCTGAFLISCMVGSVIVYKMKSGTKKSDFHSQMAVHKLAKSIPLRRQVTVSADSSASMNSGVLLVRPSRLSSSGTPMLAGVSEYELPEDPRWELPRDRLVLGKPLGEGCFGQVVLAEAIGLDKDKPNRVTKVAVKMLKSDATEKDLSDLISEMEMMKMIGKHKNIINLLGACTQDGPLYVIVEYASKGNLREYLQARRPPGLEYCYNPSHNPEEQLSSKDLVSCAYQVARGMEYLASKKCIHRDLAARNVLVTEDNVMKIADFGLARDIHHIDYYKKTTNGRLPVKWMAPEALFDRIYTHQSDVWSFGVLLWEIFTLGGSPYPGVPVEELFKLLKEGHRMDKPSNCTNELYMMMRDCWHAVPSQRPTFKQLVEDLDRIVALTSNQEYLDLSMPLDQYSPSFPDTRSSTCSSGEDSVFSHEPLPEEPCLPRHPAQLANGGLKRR
T4 sequence (P22607 23-806): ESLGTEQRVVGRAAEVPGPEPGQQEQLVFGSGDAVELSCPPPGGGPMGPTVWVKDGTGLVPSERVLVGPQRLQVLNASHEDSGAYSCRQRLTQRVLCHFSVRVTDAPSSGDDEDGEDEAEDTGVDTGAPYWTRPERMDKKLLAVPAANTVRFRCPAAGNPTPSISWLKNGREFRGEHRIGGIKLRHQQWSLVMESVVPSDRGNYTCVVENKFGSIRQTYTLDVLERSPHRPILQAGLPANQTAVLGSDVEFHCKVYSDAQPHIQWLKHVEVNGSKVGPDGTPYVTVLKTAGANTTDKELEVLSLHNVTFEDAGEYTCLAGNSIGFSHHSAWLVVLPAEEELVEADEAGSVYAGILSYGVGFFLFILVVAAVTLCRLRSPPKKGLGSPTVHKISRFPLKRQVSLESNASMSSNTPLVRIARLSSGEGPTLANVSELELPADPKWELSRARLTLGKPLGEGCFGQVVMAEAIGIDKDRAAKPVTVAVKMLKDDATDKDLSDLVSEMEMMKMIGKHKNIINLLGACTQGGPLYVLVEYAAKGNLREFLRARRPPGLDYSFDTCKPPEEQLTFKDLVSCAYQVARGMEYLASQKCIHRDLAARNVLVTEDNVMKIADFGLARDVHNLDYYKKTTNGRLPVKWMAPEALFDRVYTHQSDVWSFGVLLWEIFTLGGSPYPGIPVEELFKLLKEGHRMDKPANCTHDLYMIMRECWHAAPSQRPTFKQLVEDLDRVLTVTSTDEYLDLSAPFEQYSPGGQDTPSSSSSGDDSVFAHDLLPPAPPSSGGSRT
T3 sequence (P22607 23-806 V555M): as the sequence (P22607 23-806) above, with V533M counted along it
T1 sequence (P21802 22-821): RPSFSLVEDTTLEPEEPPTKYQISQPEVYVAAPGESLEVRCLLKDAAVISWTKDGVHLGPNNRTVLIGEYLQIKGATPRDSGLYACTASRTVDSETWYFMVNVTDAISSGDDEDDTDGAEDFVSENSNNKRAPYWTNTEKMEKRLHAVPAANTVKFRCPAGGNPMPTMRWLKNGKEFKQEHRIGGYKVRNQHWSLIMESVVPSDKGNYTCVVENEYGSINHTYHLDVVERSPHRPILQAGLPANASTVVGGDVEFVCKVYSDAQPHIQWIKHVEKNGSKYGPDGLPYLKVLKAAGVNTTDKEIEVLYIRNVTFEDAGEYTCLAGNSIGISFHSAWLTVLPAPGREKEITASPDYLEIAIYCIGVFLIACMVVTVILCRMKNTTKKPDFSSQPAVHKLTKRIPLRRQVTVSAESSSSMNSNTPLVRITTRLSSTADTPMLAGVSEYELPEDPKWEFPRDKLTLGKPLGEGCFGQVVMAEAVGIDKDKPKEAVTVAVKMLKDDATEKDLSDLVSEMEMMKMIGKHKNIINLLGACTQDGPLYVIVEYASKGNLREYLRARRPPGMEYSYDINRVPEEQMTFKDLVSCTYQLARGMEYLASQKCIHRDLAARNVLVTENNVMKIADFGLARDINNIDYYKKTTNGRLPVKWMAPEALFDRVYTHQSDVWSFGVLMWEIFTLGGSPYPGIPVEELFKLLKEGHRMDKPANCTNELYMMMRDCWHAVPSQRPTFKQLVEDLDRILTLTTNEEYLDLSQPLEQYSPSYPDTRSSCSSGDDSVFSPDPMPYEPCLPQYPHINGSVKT

As to `C=CC(=O)Nc1ccc2c(ccn2-c2nc(Nc3ccc(N4CCN(C)CC4)cc3)ncc2Cl)c1` [Example 1, N-[1-[5-chloro-2-[4-(4-methylpiperazin-1-yl)anilino]pyrimidin-4-yl]indol-5-yl]prop-2-enamide], the Kd in experiment [1], in experiment [2], in experiment [4] and in experiment [5] was 0.1 to 100 nM each time. For the same compound, the IC50 in experiment [3] fell in the range of 100 to 250 nM.

As for `C=CC(=O)Nc1ccc2c(c1)c(C)cn2-c1nc(Nc2cnn(C)c2)ncc1C#N` [Example 32, N-[1-[5-cyano-2-[(1-methylpyrazol-4-yl)amino]pyrimidin-4-yl]-3-methyl-indol-5-yl]prop-2-enamide], the Kd in experiment [1], in experiment [2], in experiment [4] and in experiment [5] was 0.1 to 100 nM throughout. Further, the IC50 in experiment [3] is 100 to 250 nM.

In the case of `C=CC(=O)Nc1ccc2c(c1)c(C)cn2-c1nc(Nc2ccc(N3CCOCC3)cc2)ncc1C#N` [Example 38, N-[1-[5-cyano-2-(4-morpholinoanilino)pyrimidin-4-yl]-3-methyl-indol-5-yl]prop-2-enamide], the Kd in experiment [1], in experiment [2], in experiment [4] and in experiment [5] was 0.1 to 100 nM in each case. Further, the IC50 in experiment [3] lay in the range of 0.1 to 100 nM.

With `C=CC(=O)Nc1ccc2c(c1)c(C)cn2-c1nc(Nc2c(C)nn(C)c2C)ncc1Cl` [Example 41, N-[1-[5-chloro-2-[(1,3,5-trimethylpyrazol-4-yl)amino]pyrimidin-4-yl]-3-methyl-indol-5-yl]prop-2-enamide], the Kd in experiment [1] lay in the range of 0.1 to 100 nM; in experiment [2] it was 100 to 250 nM; in experiment [4], 0.1 to 100 nM; in experiment [5], 0.1 to 100 nM. Further, the IC50 in experiment [3] lay within 250 to 1000 nM.

Turning to `C=CC(=O)Nc1ccc2c(-c3nc(Nc4cnc5ccnn5c4)ncc3Cl)cn(C)c2c1` [Example 43, N-[3-[5-chloro-2-(pyrazolo[1,5-a]pyrimidin-6-ylamino)pyrimidin-4-yl]-1-methyl-indol-6-yl]prop-2-enamide], the IC50 in experiment [6] fell in the range of 100 to 250 nM.

`C=CC(=O)Nc1ccc2c(-c3nc(Nc4ccc(N5CCN(C)CC5)cc4)ncc3Cl)cn(C)c2c1` [Example 50, N-[3-[5-chloro-2-[4-(4-methylpiperazin-1-yl)anilino]-pyrimidin-4-yl]-1-methyl-indol-6-yl]prop-2-enamide]: the IC50 in experiment [3] fell in the range of 0.1 to 100 nM.

For the compound `C=CC(=O)Nc1ccc2c(c1)c(C)nn2-c1nc(Nc2ccnn2C)ncc1F` [Example 76, N-[1-[5-fluoro-2-[(2-methylpyrazol-3-yl)amino]pyrimidin-4-yl]-3-methyl-indazol-5-yl]prop-2-enamide], the Kd in experiment [1] was 250 to 1000 nM; in experiment [2], > 1000 nM; in experiment [4] it was > 1000 nM; in experiment [5] it was 250 to 1000 nM. In addition, in experiment [6], the IC50 lay in the range of 250 to 1000 nM.

In the case of `C=CC(=O)Nc1ccc2c(c1)c(C)nn2-c1nc(Nc2ccnn2C)ncc1C` [Example 77, N-[3-methyl-1-[5-methyl-2-[(2-methylpyrazol-3-yl)amino]pyrimidin-4-yl]indazol-5-yl]prop-2-enamide], the Kd in experiment [1] was > 1000 nM; in experiment [2], > 1000 nM; in experiment [4], 250 to 1000 nM; in experiment [5], 250 to 1000 nM. The IC50 in experiment [6] was > 1000 nM.

`C=CC(=O)Nc1cnc2c(c1)c(C)cn2-c1nc(Nc2ccnn2C)ncc1F` [Example 80, N-[1-[5-fluoro-2-[(2-methylpyrazol-3-yl)amino]pyrimidin-4-yl]-3-methyl-pyrrolo[2,3-b]pyridin-5-yl]prop-2-enamide]: the Kd in experiment [1], in experiment [2], in experiment [4] and in experiment [5] was 0.1 to 100 nM each time. Also, in experiment [6], the IC50 fell in the range of 0.1 to 100 nM.

Turning to `C=CC(=O)Nc1ccc2c(c1)c(C)cn2-c1nc(Nc2cnn(CCO)c2)ncc1Cl` [Example 89, N-[1-[5-chloro-2-[[1-(2-hydroxyethyl)pyrazol-4-yl]amino]pyrimidin-4-yl]-3-methyl-indol-5-yl]prop-2-enamide], the IC50 in experiment [7] and in experiment [6] was 0.1 to 100 nM in each case. Moreover, the Kd in experiment [1], in experiment [2], in experiment [4] and in experiment [5] was 0.1 to 100 nM throughout.

Take `C=CC(=O)Nc1ccc2c(c1)c(C)cn2-c1nc(Nc2cnn(CCO)c2)ncc1F` [Example 90, N-[1-[5-fluoro-2-[[1-(2-hydroxyethyl)pyrazol-4-yl]amino]pyrimidin-4-yl]-3-methyl-indol-5-yl]prop-2-enamide]: the IC50 in experiment [7] and in experiment [6] was 0.1 to 100 nM throughout. The Kd in experiment [1], in experiment [2], in experiment [4] and in experiment [5] was 0.1 to 100 nM throughout.

Take `C=CC(=O)Nc1ccc2c(c1)c(C)cn2-c1nc(Nc2cnn(CC(C)(C)O)c2C)ncc1F` [Example 183, N-[1-[5-fluoro-2-[[1-(2-hydroxy-2-methyl-propyl)-5-methyl-pyrazol-4-yl]amino]pyrimidin-4-yl]-3-methyl-indol-5-yl]prop-2-enamide]: in experiment [7], the IC50 lay within 0.1 to 100 nM. The Kd in experiment [1], in experiment [2], in experiment [4] and in experiment [5] was 0.1 to 100 nM each time.

Turning to `C=CC(=O)Nc1ccc2c(-c3ccnc(Nc4cnn(C(F)(F)F)c4)n3)cn(C)c2c1` [Example 184, N-[1-methyl-3-[2-[[1-(trifluoromethyl)pyrazol-4-yl]amino]pyrimidin-4-yl]indol-6-yl]prop-2-enamide], the IC50 in experiment [7] and in experiment [6] was 0.1 to 100 nM throughout. Also, the dissociation constant Kd lay within 0.1 to 100 nM in experiment [1], 250 to 1000 nM in experiment [2], 0.1 to 100 nM in experiment [4] and 0.1 to 100 nM in experiment [5].

Regarding `C=CC(=O)Nc1ccc2c(-c3ccnc(Nc4cnn(C)c4)n3)cn(C)c2c1` [Example 201, N-[3-[2-[(1-methylpyrazol-4-yl)amino]pyrimidin-4-yl]-1-methyl-indol-6-yl]prop-2-enamide], in experiment [7], the IC50 is 0.1 to 100 nM. In addition, the Kd in experiment [1], in experiment [2], in experiment [4] and in experiment [5] was 0.1 to 100 nM in each case.

With `C=CC(=O)Nc1ccc2c(c1)c(C)cn2-c1nc(Nc2cnn3c2CCC3)ncc1F` [Example 207, N-[1-[2-(5,6-dihydro-4H-pyrrolo[1,2-b]pyrazol-3-ylamino)-5-fluoro-pyrimidin-4-yl]-3-methyl-indol-5-yl]prop-2-enamide], the Kd in experiment [1], in experiment [2], in experiment [4] and in experiment [5] was 0.1 to 100 nM each time. For the same compound, the IC50 in experiment [6] lay within 0.1 to 100 nM.

Turning to `C=CC(=O)Nc1ccc2c(c1)c(C)cn2-c1nc(Nc2cnn(C3CCOCC3)c2)ncc1F` [Example 208, N-[1-[5-fluoro-2-[(1-tetrahydropyran-4-ylpyrazol-4-yl)amino]pyrimidin-4-yl]-3-methyl-indol-5-yl]prop-2-enamide], the half-inhibitory concentration (IC50) in experiment [7] is 0.1 to 100 nM. The Kd in experiment [1], in experiment [2], in experiment [4] and in experiment [5] was 0.1 to 100 nM throughout.

As for `C=CC(=O)Nc1ccc2c(c1)c(C)cn2-c1nc(Nc2cn(C[C@@H](C)O)nc2C)ncc1F` [Example 214, N-[1-[5-fluoro-2-[[1-[(2R)-2-hydroxypropyl]-3-methyl-pyrazol-4-yl]amino]pyrimidin-4-yl]-3-methyl-indol-5-yl]prop-2-enamide], the IC50 in experiment [7] lay in the range of 0.1 to 100 nM. Moreover, the equilibrium dissociation constant (Kd) in experiment [1], in experiment [2], in experiment [4] and in experiment [5] was 0.1 to 100 nM in each case.

With `C=CC(=O)Nc1ccc2c(c1)c(C)cn2-c1nc(Nc2cnn(C3CCOC3)c2)ncc1F` (stereo not shown) [Example 215, N-[1-[5-fluoro-2-[(1-tetrahydrofuran-3-ylpyrazol-4-yl)amino]pyrimidin-4-yl]-3-methyl-indol-5-yl]prop-2-enamide], the IC50 in experiment [7] fell in the range of 0.1 to 100 nM. Also, the Kd in experiment [1], in experiment [2], in experiment [4] and in experiment [5] was 0.1 to 100 nM throughout.

(Values after patent publication US20240190849A1, “AMINOPYRIMIDINE COMPOUNDS AND METHODS OF THEIR USE” (TYRA BIOSCIENCES, INC., priority 2021, published 2024).)
